From paper PMC7866087, “Evaluation of Computationally Designed Peptides against TWEAK, a Cytokine of the Tumour Necrosis Factor Ligand Family” (International Journal of Molecular Sciences, 2021)
Where “and” joins values, the source holds several entries; their conditions need not be identical. Equal values may be shown once.

System: TWEAK-Fn14 signalling pathway, BRV5 cells
Test: Cell-based screening of individual peptides, gene expression microarray in TWEAK-stimulated BRV5 cells
Design: species or system human
Conditions: 6 h; for regulation of probe genes by individual peptides: BRV5 + TWEAK 25 ng/mL, peptides 450 µM; for BIRC2 mRNA expression (normalized to NARS2) / HSP90B1 mRNA expression (normalized to NARS2) / IL6 mRNA expression (normalized to NARS2) / JUN mRNA expression (normalized to NARS2) / MAP4K4 mRNA expression (normalized to NARS2) / MAPK14 mRNA expression (normalized to NARS2) / NFKB2 mRNA expression (normalized to NARS2) / TNFRSF12A mRNA expression (normalized to NARS2) / TRAF2 mRNA expression (normalized to NARS2) / BIRC2 expression Z-Score / HSP90B1 expression Z-Score / IL6 expression Z-Score / JUN expression Z-Score / MAP4K4 expression Z-Score / MAPK14 expression Z-Score / NFKB2 expression Z-Score / TNFRSF12A expression Z-Score / TRAF2 expression Z-Score: individual peptides, BRV5 + TWEAK; for BIRC2 mRNA expression (normalized to NARS2) / HSP90B1 mRNA expression (normalized to NARS2) / IL6 mRNA expression (normalized to NARS2) / JUN mRNA expression (normalized to NARS2) / MAP4K4 mRNA expression (normalized to NARS2) / MAPK14 mRNA expression (normalized to NARS2) / NFKB2 mRNA expression (normalized to NARS2) / TNFRSF12A mRNA expression (normalized to NARS2) / TRAF2 mRNA expression (normalized to NARS2): 450 µM; for BIRC2 expression Z-Score / HSP90B1 expression Z-Score / IL6 expression Z-Score / JUN expression Z-Score / MAP4K4 expression Z-Score / MAPK14 expression Z-Score / NFKB2 expression Z-Score / TNFRSF12A expression Z-Score / TRAF2 expression Z-Score: normalized to NARS2
Text: Pool 1 and 5 were therefore deconstructed to assess the effect of individual peptides and their activity on same cell-based screening. Pools 1 and 5 were composed of peptides 45, 46, 42, 3, 49, 11, and 13; and of peptides 1, 9, 30, 35, 41, 43, 7, and 14, respectively. As before, and shown in Figure 4B, the level of expression of probe genes on TWEAK-stimulated (T) BRV5 cells is overall higher than on non-stimulated (NT) one. […] The structural model of peptides 43, 30, 35 and 49 bound to TWEAK can be seen in Figure 5 and Supplementary Materials Figures S4–S6, respectively.
Three different cell lines were used in this study: BRV5, MDA-MB 435 (435-P), and HT29. The BRV5 is a highly metastatic brain cell line, obtained in one of our laboratories by primary culture from a brain of a nude mouse inoculated with human 435-Br1 brain metastatic cells, as previously described and used as a model to test the peptides in cell cultures. […] The triple negative 435-P cell line is a useful human breast cancer model that expresses both epithelial and melanocytic markers, and was included as the parental cell from which 435-Br1 metastatic variant was initially originated (both cell lines kindly provided by Dr Fabra at IDIBELL Institute, Hospitalet de Llobregat, Spain). Finally, HT29 human colon carcinoma cells obtained from the European Type Culture Collection (ECACC 91072201) were used as a positive control of TWEAK dependent Fn14 over-expressing cells to evaluate TWEAK-Fn14 axis of brain metastatic variants.
Appropriate cell culture conditions were established as the controls needed in the expression of genes with and without peptides and with and without TWEAK activation, both as pools and individually (see Supplementary Materials Figure S2). The protocol started with the seeding of 125,000 cells/well in 500 µL of culture media supplemented with 10% fetal bovine serum (CM+FBS10%) in 24-well dishes for 24 h before removing FBS (CM-FBS). After overnight starvation in CM-FBS culture, different peptide treatment conditions (at final concentration of 450 µM) were established in the presence or absence of TWEAK (25 ng/mL final concentration) (Peprotech EC, Ltd., London, UK). Some cells were treated with peptides at a single, unique, initial dose (time 0) while other were treated with repeated doses to account for the effect cell-culture degradation. These include a repeated treatment every hour (i.e., […]), every two hours (time 0, 2, and 4) and every three hours (time 0 and 3)—see Supplementary Materials Figure S2 for diagrammatic depiction. At time 6 (after six hours) cells were lysed and RNA extracted for transcriptomic analyses (see next). Cell were culture for six hours as this was the time needed to achieve the highest upregulation of the TWEAK-Fn14 axis upon TWEAK treatment as shown in previous time-course RT-PCR experiments (see Figure 2).
RNA from cells was extracted 6 h after treatments by direct lysis on the well. The RNeasy Micro kit (Qiagen, Hilden, Germany) was used to isolate total RNA from cell lysate following manufacturer’s protocols including an additional step of digestion with DNase I (Qiagen, Hilden, Germany). Total RNA concentration was measured in a NanoDrop 1000 spectrophotometer (Thermo Scientific, Waltham, MA, USA). The RNA extracted from treated and untreated cells (see above) was used as a proxy for gene expression.
The quantitative RT-PCR was performed using Fluidigm Dynamic Array FlexSix array with the specific primers for gene expression (Delta Genes Assays, Wet lab tested on Dynamic Array IFC) designed to RefSeq for detection by pPCR EvaGreen assay (Dynamic Array FlexSix, Fluidigm Corporation). Each Flex Six IFC has a total of six independent partitions. Each partition has a 12 × 12 format (12 assay inlets and 12 sample inlets) and will be run independently as a separate experimental run. […]

Row | Substance | regulation of probe genes by individual peptides | BIRC2 mRNA expression (normalized to NARS2) (mean of replicate columns) | HSP90B1 mRNA expression (normalized to NARS2) (mean of replicate columns) | IL6 mRNA expression (normalized to NARS2) (mean of replicate columns) | JUN mRNA expression (normalized to NARS2) (mean of replicate columns) | MAP4K4 mRNA expression (normalized to NARS2) (mean of replicate columns) | MAPK14 mRNA expression (normalized to NARS2) (mean of replicate columns) | NFKB2 mRNA expression (normalized to NARS2) (mean of replicate columns) | TNFRSF12A mRNA expression (normalized to NARS2) (mean of replicate columns) | TRAF2 mRNA expression (normalized to NARS2) (mean of replicate columns) | BIRC2 mRNA expression (normalized to NARS2) (replicate column 1) | HSP90B1 mRNA expression (normalized to NARS2) (replicate column 1) | IL6 mRNA expression (normalized to NARS2) (replicate column 1) | JUN mRNA expression (normalized to NARS2) (replicate column 1) | MAP4K4 mRNA expression (normalized to NARS2) (replicate column 1) | MAPK14 mRNA expression (normalized to NARS2) (replicate column 1) | NFKB2 mRNA expression (normalized to NARS2) (replicate column 1) | TNFRSF12A mRNA expression (normalized to NARS2) (replicate column 1) | TRAF2 mRNA expression (normalized to NARS2) (replicate column 1) | BIRC2 mRNA expression (normalized to NARS2) (replicate column 2) | also measured
1 | 42: YNGHVKDD [Peptide 42] | lack of effect against the probe genes | 0.5389 | 2.753 | 0.00216 | 0.08082 | 0.2296 | 0.2228 | 0.05504 | 0.02325 | 0.01684 | 0.5109 | 2.683 | 0.001723 | 0.07685 | 0.2119 | 0.2124 | 0.04902 | 0.02357 | 0.01769 | 0.5668 | HSP90B1 mRNA expression (normalized to NARS2) (replicate column 2): 2.8231; IL6 mRNA expression (normalized to NARS2) (replicate column 2): 0.002596; JUN mRNA expression (normalized to NARS2) (replicate column 2): 0.08479; MAP4K4 mRNA expression (normalized to NARS2) (replicate column 2): 0.2473; MAPK14 mRNA expression (normalized to NARS2) (replicate column 2): 0.2332; NFKB2 mRNA expression (normalized to NARS2) (replicate column 2): 0.06106; TNFRSF12A mRNA expression (normalized to NARS2) (replicate column 2): 0.02293; TRAF2 mRNA expression (normalized to NARS2) (replicate column 2): 0.01599; BIRC2 expression Z-Score (listed as P42): -0.1362; HSP90B1 expression Z-Score (listed as P42): 0.9131; IL6 expression Z-Score (listed as P42): 0.2346; JUN expression Z-Score (listed as P42): -0.1905; MAP4K4 expression Z-Score (listed as P42): 1.1128 and 1.113; MAPK14 expression Z-Score (listed as P42): 0.3913; NFKB2 expression Z-Score (listed as P42): 1.3869 and 1.387; TNFRSF12A expression Z-Score (listed as P42): 0.3098; TRAF2 expression Z-Score (listed as P42): -0.1276
2 | SWYDHMAGDSSY [Peptide 35] | lowest overall expression across all genes | 0.4507 | 1.621 | 0.002118 | 0.05317 | 0.1168 | 0.1368 | 0.02465 | 0.01131 | 0.008162 | 0.4318 | 1.578 | 0.00212 | 0.0528 | 0.1079 | 0.1402 | 0.02663 | 0.01132 | 0.007774 | 0.4696 | HSP90B1 mRNA expression (normalized to NARS2) (replicate column 2): 1.664; IL6 mRNA expression (normalized to NARS2) (replicate column 2): 0.002116; JUN mRNA expression (normalized to NARS2) (replicate column 2): 0.05355; MAP4K4 mRNA expression (normalized to NARS2) (replicate column 2): 0.1258; MAPK14 mRNA expression (normalized to NARS2) (replicate column 2): 0.1335; NFKB2 mRNA expression (normalized to NARS2) (replicate column 2): 0.02267; TNFRSF12A mRNA expression (normalized to NARS2) (replicate column 2): 0.01129; TRAF2 mRNA expression (normalized to NARS2) (replicate column 2): 0.008551; BIRC2 expression Z-Score (listed as P35): -0.7468; HSP90B1 expression Z-Score (listed as P35): -1.1014 and -1.101; IL6 expression Z-Score (listed as P35): 0.1984; JUN expression Z-Score (listed as P35): -0.5085; MAP4K4 expression Z-Score (listed as P35): -1.7018 and -1.702; MAPK14 expression Z-Score (listed as P35): -1.1107 and -1.111; NFKB2 expression Z-Score (listed as P35): -1.5063 and -1.506; TNFRSF12A expression Z-Score (listed as P35): -1.0476 and -1.048; TRAF2 expression Z-Score (listed as P35): -0.5479
3 | 1: GNGTDDNSGTSY [Peptide 1] | lack of effect against the probe genes | 0.5966 | 1.937 | 0.002365 | 0.07082 | 0.1707 | 0.1634 | 0.03922 | 0.01975 | 0.011 | 0.538 | 1.874 | 0.002307 | 0.06535 | 0.1695 | 0.1671 | 0.04144 | 0.01871 | 0.009637 | 0.6552 | HSP90B1 mRNA expression (normalized to NARS2) (replicate column 2): 2.001; IL6 mRNA expression (normalized to NARS2) (replicate column 2): 0.002424; JUN mRNA expression (normalized to NARS2) (replicate column 2): 0.07629; MAP4K4 mRNA expression (normalized to NARS2) (replicate column 2): 0.1719; MAPK14 mRNA expression (normalized to NARS2) (replicate column 2): 0.1597; NFKB2 mRNA expression (normalized to NARS2) (replicate column 2): 0.037; TNFRSF12A mRNA expression (normalized to NARS2) (replicate column 2): 0.0208; TRAF2 mRNA expression (normalized to NARS2) (replicate column 2): 0.01237; BIRC2 expression Z-Score (listed as P1): 0.2639; HSP90B1 expression Z-Score (listed as P1): -0.5389; IL6 expression Z-Score (listed as P1): 0.4124; JUN expression Z-Score (listed as P1): -0.3055; MAP4K4 expression Z-Score (listed as P1): -0.3569; MAPK14 expression Z-Score (listed as P1): -0.6461; NFKB2 expression Z-Score (listed as P1): -0.1191; TNFRSF12A expression Z-Score (listed as P1): -0.0875 and -0.08748; TRAF2 expression Z-Score (listed as P1): -0.4104
